Reference: patent EP4644383A1 (Jiangsu Yahong Meditech Co., Ltd., priority 2022, dated 2024)

Molecular target: T1, FGFR3 (Homo sapiens, UniProt P22607)
T1 construct: FGFR3's cytoplasmic domain [436-806 (terminal) amino acids]; purchased Carna 08-135
Experiment: FGFR3 kinase activity inhibition assay (LanthaScreen TR-FRET)
Format: biochemical
Settings: not given
Description: PV3552) and 10 mM EDTA were added to quench the kinase reaction, and incubated at 22°C for 60 minutes. • ⑤ The reaction was measured using a PerkinElmer EnVision multimode plate reader through TR-FRET dual wavelength detection. • 1. The RFU values were copied from the Envision program. • 2. The ratio of RFU 520nm/RFU 495nm was calculated. • 3. The value of the ratio was converted to a percentage inhibition value. % Inhibition = (max-data)/(max-min) × 100 [formula] "Min" represents the ratio of the control without enzyme, "max" represents the ratio of the DMSO control, and "data" represents the ratio of the compounds in wells with different concentrations. […] "Top" refers to the maximum response, "Bottom" refers to the minimum response, and "HillSlope" refers to the slope of the curve. According to the same method as that in the FGFR1 kinase activity inhibition assay, the inhibitory activities against FGFR2, FGFR3 and FGFR4 were tested using FGFR2's cytoplasmic domain [399-821 (terminal) amino acids] (Carna: 08-134), FGFR3's cytoplasmic domain [436-806 (terminal) amino acids] (Carna: 08-135) and FGFR4's cytoplasmic domain [460-802 (terminal) amino acids] (Carna: 08-136), respectively. […]

T1 sequence (P22607 436-806): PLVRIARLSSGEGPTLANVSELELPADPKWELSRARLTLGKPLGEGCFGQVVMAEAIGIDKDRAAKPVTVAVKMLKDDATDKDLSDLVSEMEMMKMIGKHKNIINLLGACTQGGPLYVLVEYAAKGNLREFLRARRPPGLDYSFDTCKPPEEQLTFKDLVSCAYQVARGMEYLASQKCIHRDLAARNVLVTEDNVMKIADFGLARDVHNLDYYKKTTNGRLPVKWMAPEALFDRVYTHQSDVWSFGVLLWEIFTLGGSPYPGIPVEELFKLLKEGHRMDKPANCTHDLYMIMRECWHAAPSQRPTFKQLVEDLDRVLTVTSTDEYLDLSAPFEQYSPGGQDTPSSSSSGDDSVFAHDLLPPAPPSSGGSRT

Q: With `C[C@@H](Oc1ccc2[nH]nc(-c3ccc(N4CCOCC4)nc3)c2n1)c1c(Cl)cncc1Cl` [Example 33, (R)-4-(5-(5-(1-(3,5-dichloropyridin-4-yl)ethoxy)-1H-pyrazolo[4,3-b]pyridin-3-yl)pyridin-2-yl)morpholine] as the molecule, how does the IC50 read?
A: The IC50 was 10 to 100 nM.

Q: How did the IC50 turn out when `C[C@@H](Oc1ccc2[nH]nc(-c3cnn(CC(C)(C)O)c3)c2n1)c1c(Cl)cncc1Cl` [Example 38, (R)-1-(4-(5-(1-(3,5-dichloropyridin-4-yl)ethoxy)-1H-pyrazolo[4,3-b]pyridin-3-yl)-1H-pyrazol-1-yl)-2-methylpropan-2-ol] was run?
A: The IC50 was 10 to 100 nM.

Same assay, conditions: FGFR3 kinase, TR-FRET; read-out: IC50 (nM) FGFR3

Q: With `CC(C)c1cc(O[C@H](C)c2c(Cl)cncc2Cl)cc2c(-c3cnn(C)c3)n[nH]c12` [Example 6, (R)-5-(1-(3,5-dichloropyridin-4-yl)ethoxy)-7-isopropyl-3-(1-methyl-1H-pyrazol-4-yl)-1H-indazole] as the molecule, how does the IC50 read?
A: The IC50 was over 100 nM.

Q: For `Cc1c[nH]c(-c2n[nH]c3c(C)cc(O[C@H](C)c4c(Cl)cncc4Cl)cc23)n1` [Example 9, (R)-5-(1-(3,5-dichloropyridin-4-yl)ethoxy)-7-methyl-3-(4-methyl-1H-imidazol-2-yl)-1H-indazole], which IC50 is on record?
A: Its IC50 is over 100 nM.

Q: For `C[C@@H](Oc1ccc2[nH]nc(-c3cnn4ccccc34)c2n1)c1c(Cl)cncc1Cl` [Example 43, (R)-5-(1-(3,5-dichloropyridin-4-yl)ethoxy)-3-(pyrazolo[1,5-a]pyridin-3-yl)-1H-pyrazolo[4,3-b]pyridine], which IC50 is on record?
A: Its IC50 is over 100 nM.

Q: With `C[C@@H](Oc1ccc2[nH]nc(-c3cnn4c3CCCC4)c2n1)c1c(Cl)cncc1Cl` [Example 44, (R)-5-(1-(3,5-dichloropyridin-4-yl)ethoxy)-3-(4,5,6,7-tetrahydropyrazolo[1,5-a]pyridin-3-yl)-1H-pyrazolo[4,3-b]pyridine] as the molecule, how does the IC50 read?
A: The IC50 was over 100 nM.

Q: With `CC(C)n1cc(-c2n[nH]c3ccc(O[C@H](C)c4c(Cl)cncc4Cl)nc23)cn1` [Example 47, (R)-5-(1-(3,5-dichloropyridin-4-yl)ethoxy)-3-(1-isopropyl-1H-pyrazol-4-yl)-1H-pyrazolo[4,3-b]pyridine] as the molecule, how does the IC50 read?
A: Its IC50 is 10 to 100 nM.

Q: How did the IC50 turn out when `CC(C)Cn1cc(-c2n[nH]c3ccc(O[C@H](C)c4c(Cl)cncc4Cl)nc23)cn1` [Example 51, (R)-5-(1-(3,5-dichloropyridin-4-yl)ethoxy)-3-(1-isobutyl-1H-pyrazol-4-yl)-1H-pyrazolo[4,3-b]pyridine] was run?
A: Its IC50 is over 100 nM.

Q: Which IC50 does the source give for `Cn1cc(-c2n[nH]c3ccc(C(=O)NCC(C)(C)O)cc23)cn1` [Example 67, N-(2-hydroxy-2-methylpropyl)-3-(1-methyl-1H-pyrazol-4-yl)-1H-indazole-5-carboxamide] here?
A: Its IC50 is over 100 nM.

Q: How did the IC50 turn out when `Cn1cc(-c2n[nH]c3ccc(C(=O)NCC4CNC4)cc23)cn1` [Example 68, N-(azetidin-3-ylmethyl)-3-(1-methyl-1H-pyrazol-4-yl)-1H-indazole-5-carboxamide] was run?
A: The IC50 was over 100 nM.

Q: With `Cn1cc(-c2n[nH]c3ccc(C(=O)NCC4CCCNC4)cc23)cn1` (stereo not shown) [Example 69, 3-(1-methyl-1H-pyrazol-4-yl)-N-(piperidin-3-ylmethyl)-1H-indazole-5-carboxamide] as the molecule, how does the IC50 read?
A: Its IC50 is over 100 nM.

Q: Which IC50 does the source give for `CNCCNC(=O)c1cc(F)c2[nH]nc(-c3cnn(CCN4CCOCC4)c3)c2c1` [Example 70, 7-fluoro-N-(2-(methylamino)ethyl)-3-(1-(2-morpholinoethyl)-1H-pyrazol-4-yl)-1H-indazole-5-carboxamide] here?
A: The IC50 was over 100 nM.

Q: For `CNCCNC(=O)c1cc2c(-c3cnn(C)c3)n[nH]c2cc1-c1cc(OC)cc(OC)c1` [Example 71, 6-(3,5-dimethoxyphenyl)-3-(1-methyl-1H-pyrazol-4-yl)-N-(2-(methylamino)ethyl) -1H-indazole-5-carboxamide], which IC50 is on record?
A: The IC50 was over 100 nM.

Q: `CNCCNC(=O)c1cc2c(-c3cnn(C)c3)n[nH]c2cc1OC` [Example 72, 6-methoxy-3-(1-methyl-1H-pyrazol-4-yl)-N-(2-(methylamino)ethyl)-1H-indazole-5-carboxamide] was tested. Which IC50 did it give?
A: The IC50 was over 100 nM.

Q: How did the IC50 turn out when `CNCCNC(=O)c1cc2c(-c3cnn(C)c3)n[nH]c2cc1F` [Example 73] was run?
A: The IC50 was over 100 nM.

Q: Which IC50 does the source give for `CNCCn1cc(-c2ccc3[nH]nc(-c4nc(C)c[nH]4)c3c2)nn1` [Example 75, N-methyl-2-(4-(3-(4-methyl-1H-imidazol-2-yl)-1H-indazol-5-yl)-1H-1,2,3-triazol-1-yl)ethan-1-amine] here?
A: The IC50 was over 100 nM.

Q: For `Cc1cccc(C)c1NC(=O)c1ccc2[nH]nc(-c3cnn(C)c3)c2c1` [Example 77, N-(2,6-dimethylphenyl)-3-(1-methyl-1H-pyrazol-4-yl)-1H-indazole-5-carboxamide], which IC50 is on record?
A: Its IC50 is over 100 nM.

Q: For `Cn1cc(-c2n[nH]c3ccc(C(=O)NCc4c(Cl)cncc4Cl)cc23)cn1` [Example 78, N-((3,5-dichloropyridin-4-yl)methyl)-3-(1-methyl-1H-pyrazol-4-yl)-1H-indazole-5-carboxamide], which IC50 is on record?
A: Its IC50 is over 100 nM.

Q: How did the IC50 turn out when `Cc1c[nH]c(-c2n[nH]c3ccc(C(=O)NCC4CCNC4)cc23)n1` (stereo not shown) [Example 79, 3-(4-methyl-1H-imidazol-2-yl)-N-(pyrrolidin-3-ylmethyl)-1H-indazole-5-carboxamide] was run?
A: The IC50 was over 100 nM.

Q: `Cc1c[nH]c(-c2n[nH]c3ccc(C(=O)NCc4ncc[nH]4)cc23)n1` [Example 81] was tested. Which IC50 did it give?
A: The IC50 was over 100 nM.

Q: For `CNCCNC(=O)c1ccc2[nH]nc(-c3nc(-c4ccccc4)c[nH]3)c2c1` [Example 82, N-(2-(methylamino)ethyl)-3-(4-phenyl-1H-imidazol-2-yl)-1H-indazole-5-carboxamide], which IC50 is on record?
A: The IC50 was over 100 nM.

Q: How did the IC50 turn out when `CNCCNC(=O)c1ccc2[nH]nc(-c3nc4c([nH]3)CN(C)C4)c2c1` [Example 83, 3-(5-methyl-1,4,5,6-tetrahydropyrrolo[3,4-d]imidazol-2-yl)-N-(2-(methylamino)ethyl)-1H-indazole-5-carboxamide] was run?
A: Its IC50 is over 100 nM.

Q: Which IC50 does the source give for `CNCCNC(=O)c1ccc2[nH]nc(-c3nc4cc(N5CCN(C)CC5)ccc4[nH]3)c2c1` [Example 84, N-(2-(methylamino)ethyl)-3-(5-(4-methylpiperazin-1-yl)-1H-benzo[d]imidazol-2-yl)-1H-indazole-5-carboxamide] here?
A: Its IC50 is over 100 nM.

Q: `CC(Oc1ccc2[nH]nc(-c3cnn(C)c3)c2c1)C1CCOCC1` (stereo not shown) [Example 86, 3-(1-methyl-1H-pyrazol-4-yl)-5-(1-(tetrahydro-2H-pyran-4-yl)ethoxy)-1H-indazole] was tested. Which IC50 did it give?
A: The IC50 was over 100 nM.

Q: `CC(Oc1ccc2[nH]nc(-c3cnn(C)c3)c2c1)c1ccn2ccnc2c1` (stereo not shown) [Example 89, 5-(1-(imidazo[1,2-a]pyridine-7-yl)ethoxy)-3-(1-methyl-1H-pyrazol-4-yl)-1H-indazole] was tested. Which IC50 did it give?
A: The IC50 was over 100 nM.

Q: Which IC50 does the source give for `Cn1cc(-c2n[nH]c3ccc(OC4CCCc5cnccc54)cc23)cn1` (stereo not shown) [Example 90, 5-((3-(1-methyl-1H-pyrazol-4-yl)-1H-indazol-5-yl)oxy)-5,6,7,8-tetrahydroisoquin oline] here?
A: The IC50 was over 100 nM.

Q: Which IC50 does the source give for `CC(Oc1ccc2[nH]nc(-c3cnn(C)c3)c2c1)c1nccs1` (stereo not shown) [Example 91, 2-(1-((3-(1-methyl-1H-pyrazol-4-yl)-1H-indazol-5-yl)oxy)ethyl)thiazole] here?
A: The IC50 was 10 to 100 nM.

Q: How did the IC50 turn out when `CC(Oc1ccc2[nH]nc(-c3cnn(C)c3)c2c1)c1ccnc2ncccc12` (stereo not shown) [Example 93, 4-(1-((3-(1-methyl-1H-pyrazol-4-yl)-1H-indazol-5-yl)oxy)ethyl)-1,8-naphthyridine] was run?
A: The IC50 was 10 to 100 nM.

Q: With `CC(Oc1ccc2[nH]nc(-c3cnn(C)c3)c2c1)c1cccc2c1OCCO2` (stereo not shown) [Example 97, 5-(1-(2,3-dihydrobenzo[b][1,4]dioxan-5-yl)ethoxy)-3-(1-methyl-1H-pyrazol-4-yl)-1H-indazole] as the molecule, how does the IC50 read?
A: The IC50 was over 100 nM.

Q: With `CC(Oc1ccc2[nH]nc(-c3cnn(C)c3)c2c1)c1c(F)ccc2ncccc12` (stereo not shown) [Example 102, 6-fluoro-5-(1-((3-(1-methyl-1H-pyrazol-4-yl)-1H-indazol-5-yl)oxy)ethyl)qu inoline] as the molecule, how does the IC50 read?
A: Its IC50 is 1 to 10 nM.

Q: For `CC(Oc1ccc2[nH]nc(-c3cnn(C)c3)c2c1)c1cccc2ncn(C)c12` (stereo not shown) [Example 103, 5-(1-(1-methyl-1H-benzo[d]imidazol-7-yl)ethoxy)-3-(1-methyl-1-H-pyrazol-4-yl)-1H-indazole], which IC50 is on record?
A: The IC50 was 1 to 10 nM.

Q: With `CC(Oc1ccc2[nH]nc(-c3cnn(C)c3)c2c1)c1cccc2cnccc12` (stereo not shown) [Example 104, 5-(1-((3-(1-methyl-1H-pyrazol-4-yl)-1H-indazol-5-yl)oxy)ethyl)isoq uinoline] as the molecule, how does the IC50 read?
A: Its IC50 is 1 to 10 nM.

Q: For `CC(Oc1ccc2[nH]nc(-c3cnn(C)c3)c2c1)c1cccc2cccnc12` (stereo not shown) [Example 105, 8-(1-((3-(1-methyl-1H-pyrazol-4-yl)-1H-indazol-5-yl)oxy)ethyl)quin oline], which IC50 is on record?
A: Its IC50 is 10 to 100 nM.

Q: With `CC(Oc1ccc2[nH]nc(-c3cnn(C)c3)c2c1)c1cccc2occc12` (stereo not shown) [Example 106, 5-(1-(benzofuran-4-yl)ethoxy)-3-(1-methyl-1H-pyrazol-4-yl)-1H-indazole] as the molecule, how does the IC50 read?
A: Its IC50 is 10 to 100 nM.

Q: How did the IC50 turn out when `CC(Oc1ccc2[nH]nc(-c3cnn(C)c3)c2c1)c1cncc2ncccc12` (stereo not shown) [Example 108, 5-(1-((3-(1-methyl-1H-pyrazol-4-yl)-1H-indazol-5-yl)oxy)ethyl)-1,7-naphthyridine] was run?
A: Its IC50 is over 100 nM.

Q: For `CC(Oc1ccc2[nH]nc(-c3cnn(C)c3)c2c1)c1cccc2scnc12` (stereo not shown) [Example 109], which IC50 is on record?
A: Its IC50 is 10 to 100 nM.

Same assay, conditions: read-out: IC50 (nM) FGFR3; FGFR3 kinase, TR-FRET

Q: For `CNCCN(C)C(=O)c1ccc2[nH]nc(-c3cnn(C)c3)c2c1` [Example 66, N-methyl-3-(1-methyl-1H-pyrazol-4-yl)-N-(2-(methylamino)ethyl) -1H-indazole-5-carboxamide], which IC50 is on record?
A: The IC50 was over 100 nM.
